Reference: PubChem BioAssay (NCI)
Several values for one entry are separate records, joined by “and”; a condition that tells them apart may be missing. Equal entries are not always repeated.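 Test compounds were applied to cells in 96-well plates for 48 hours at 5 doses. GI50 is the concentration that inhibits growth by half. TGI: total growth inhibition.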

How the values were obtained:
Assay in all cases: inhibition of tumour cell growth, NCI panel, 48 h
A549 NSCLC = test system: A549 NSCLC
DU-145 prostate = test system: DU-145 prostate
EKVX NSCLC = test system: EKVX NSCLC
HCT-15 colon = test system: HCT-15 colon
IGROV1 ovarian = test system: IGROV1 ovarian
KM12 colon = test system: KM12 colon
LOX IMVI melanoma = test system: LOX IMVI melanoma
MDA-MB-231 breast = test system: MDA-MB-231 breast
OVCAR-3 ovarian = test system: OVCAR-3 ovarian
SK-MEL-5 melanoma = test system: SK-MEL-5 melanoma

In the case of `CC(=O)OCCCC#CC#Cc1cccc(=O)o1`, the GI50 (A549 NSCLC) is reported as 20.4 µM, the TGI (A549 NSCLC) is reported as 42.9 µM and the GI50 (DU-145 prostate) is reported as 11.7 µM. The TGI (DU-145 prostate) was 26.8 µM, the GI50 (EKVX NSCLC) was 16.9 µM and the TGI (EKVX NSCLC) was 36.4 µM. For the same compound, the GI50 (HCT-15 colon) was 11.7 µM, the TGI (HCT-15 colon) was 25.7 µM and the GI50 (IGROV1 ovarian) was 18.7 µM. For the same compound, the TGI (IGROV1 ovarian) was > 100 µM, the GI50 (KM12 colon) was 16 µM and the TGI (KM12 colon) was 30.9 µM. For the same compound, the GI50 (LOX IMVI melanoma) was 15.8 µM, the TGI (LOX IMVI melanoma) was 54 µM and the GI50 (MDA-MB-231 breast) was 13.7 µM. For the same compound, the TGI (MDA-MB-231 breast) was 29 µM, the GI50 (OVCAR-3 ovarian) was 2.89 µM and the TGI (OVCAR-3 ovarian) was 14.2 µM. The GI50 (SK-MEL-5 melanoma) was 16.1 µM and the TGI (SK-MEL-5 melanoma) was 32.6 µM.
For `O=C(O)c1cn(C2CC2)c2cc(N3CCN(Cc4c(O)ccc5ccccc45)CC3)c(F)cc2c1=O`, the GI50 (A549 NSCLC) was 4.03 µM, the TGI (A549 NSCLC) was > 100 µM and the GI50 (DU-145 prostate) was 3.78 µM. The TGI (DU-145 prostate) was > 100 µM, the GI50 (EKVX NSCLC) was > 100 µM and the TGI (EKVX NSCLC) was > 100 µM. For the same compound, the GI50 (HCT-15 colon) was 3.64 µM, the TGI (HCT-15 colon) was > 100 µM and the GI50 (IGROV1 ovarian) was 9.64 µM. The TGI (IGROV1 ovarian) was > 100 µM, the GI50 (KM12 colon) was 9.18 µM and the TGI (KM12 colon) was > 100 µM. For the same compound, the GI50 (LOX IMVI melanoma) was 4.67 µM, the TGI (LOX IMVI melanoma) was > 100 µM and the GI50 (MDA-MB-231 breast) was 5.15 µM. For the same compound, the TGI (MDA-MB-231 breast) was > 100 µM, the GI50 (OVCAR-3 ovarian) was 3.4 µM and the TGI (OVCAR-3 ovarian) was 22.6 µM. The GI50 (SK-MEL-5 melanoma) was 5.45 µM and the TGI (SK-MEL-5 melanoma) was > 100 µM.
For `COC(=O)[C@@H](C)C[C@H](Cc1ccccc1)NC(=O)c1csc([C@@H](C[C@H](C(C)C)N(C)C(=O)[C@@H](NC(=O)[C@H]2CCCN2C)C2CC2)OC(C)=O)n1`, the GI50 (A549 NSCLC) was 0.00664 µM and 0.0025 µM, the TGI (A549 NSCLC) was > 25 µM and the GI50 (DU-145 prostate) was 0.000446 µM and 0.0025 µM. The TGI (DU-145 prostate) was > 25 µM, the GI50 (EKVX NSCLC) was 0.00833 µM and the GI50 (HCT-15 colon) was 0.00495 µM and 0.0025 µM. For the same compound, the TGI (HCT-15 colon) was > 25 µM, the GI50 (IGROV1 ovarian) was 0.000823 µM and 0.0025 µM and the TGI (IGROV1 ovarian) was > 25 µM. The GI50 (KM12 colon) was 0.00222 µM and 0.0025 µM, the TGI (KM12 colon) was > 25 µM and the GI50 (LOX IMVI melanoma) was 0.00477 µM and 0.0025 µM. The TGI (LOX IMVI melanoma) was > 25 µM, the GI50 (MDA-MB-231 breast) was 0.00165 µM and < 0.0025 µM and the TGI (MDA-MB-231 breast) was < 0.0025 µM. The GI50 (OVCAR-3 ovarian) was 0.000198 µM, the TGI (OVCAR-3 ovarian) was 0.00695 µM and the GI50 (SK-MEL-5 melanoma) was 0.000329 µM and < 0.0025 µM.
With `N#CC1=C(N)Oc2c(sc3c(Br)cccc23)C1c1ccc(Cl)cc1` (stereo not drawn) the GI50 (A549 NSCLC) was 1.16 µM, the TGI (A549 NSCLC) was 3.52 µM and the GI50 (DU-145 prostate) was 0.533 µM. For the same compound, the TGI (DU-145 prostate) was 3.29 µM, the GI50 (EKVX NSCLC) was 2.23 µM and the TGI (EKVX NSCLC) was 17.4 µM. It also gave a GI50 (HCT-15 colon) of 0.403 µM, a TGI (HCT-15 colon) of 2.25 µM and a GI50 (IGROV1 ovarian) of 0.787 µM. It also gave a TGI (IGROV1 ovarian) of 4.35 µM, a GI50 (KM12 colon) of 0.389 µM and a TGI (KM12 colon) of 6.2 µM. The GI50 (LOX IMVI melanoma) was 0.579 µM, the TGI (LOX IMVI melanoma) was 8.45 µM and the GI50 (MDA-MB-231 breast) was 1.32 µM. The TGI (MDA-MB-231 breast) was 4.69 µM, the GI50 (OVCAR-3 ovarian) was 0.272 µM and the TGI (OVCAR-3 ovarian) was 0.749 µM. It also gave a GI50 (SK-MEL-5 melanoma) of 0.559 µM and a TGI (SK-MEL-5 melanoma) of 2.72 µM.
`C=C1C(=O)O[C@H]2[C@H]1CC/C(CNC(=O)/C=C/c1ccccc1F)=C\CC[C@@]1(C)O[C@@H]21` showed a GI50 (A549 NSCLC) of 7 µM, a TGI (A549 NSCLC) of 24.5 µM and a GI50 (DU-145 prostate) of 1.03 µM. For the same compound, the TGI (DU-145 prostate) was 2.26 µM, the GI50 (EKVX NSCLC) was 1.89 µM and the TGI (EKVX NSCLC) was 5.95 µM. The GI50 (HCT-15 colon) was 1.01 µM, the TGI (HCT-15 colon) was 2.49 µM and the GI50 (IGROV1 ovarian) was 1.69 µM. The TGI (IGROV1 ovarian) was 4.65 µM, the GI50 (KM12 colon) was 4.4 µM and the TGI (KM12 colon) was 17.3 µM. For the same compound, the GI50 (LOX IMVI melanoma) was 1.19 µM, the TGI (LOX IMVI melanoma) was 2.56 µM and the GI50 (MDA-MB-231 breast) was 1.93 µM. For the same compound, the TGI (MDA-MB-231 breast) was 4.44 µM, the GI50 (OVCAR-3 ovarian) was 0.691 µM and the TGI (OVCAR-3 ovarian) was 2.1 µM. The GI50 (SK-MEL-5 melanoma) was 1.78 µM and the TGI (SK-MEL-5 melanoma) was 3.29 µM.
For `CN1C(=O)C2(c3ccccc31)C1CC3C(CO1)C1C2C3(CO)CN1C#N` (stereo not drawn), the TGI (A549 NSCLC) was > 100 µM, the TGI (DU-145 prostate) was > 100 µM and the TGI (EKVX NSCLC) was > 100 µM. For the same compound, the TGI (HCT-15 colon) was > 100 µM, the TGI (IGROV1 ovarian) was > 100 µM and the TGI (KM12 colon) was > 100 µM. For the same compound, the TGI (LOX IMVI melanoma) was > 100 µM, the TGI (MDA-MB-231 breast) was > 100 µM and the TGI (OVCAR-3 ovarian) was > 100 µM. For the same compound, the TGI (SK-MEL-5 melanoma) was > 100 µM.
Work on `CN(C)c1ccccc1[CH2][Ga]([Cl])[CH2]c1ccccc1N(C)C` yielded a GI50 (A549 NSCLC) of 1.44 µM, a TGI (A549 NSCLC) of 2.94 µM and a GI50 (DU-145 prostate) of 1.61 µM. It also gave a TGI (DU-145 prostate) of 3.2 µM, a GI50 (EKVX NSCLC) of 0.794 µM and a TGI (EKVX NSCLC) of 2.24 µM. For the same compound, the GI50 (HCT-15 colon) was 0.698 µM, the TGI (HCT-15 colon) was 2.33 µM and the GI50 (IGROV1 ovarian) was 1.29 µM. For the same compound, the TGI (IGROV1 ovarian) was 2.73 µM, the GI50 (KM12 colon) was 0.635 µM and the TGI (KM12 colon) was 2.24 µM. It also gave a GI50 (LOX IMVI melanoma) of 1.13 µM, a TGI (LOX IMVI melanoma) of 3.18 µM and a GI50 (MDA-MB-231 breast) of 1.31 µM. It also gave a TGI (MDA-MB-231 breast) of 2.71 µM, a GI50 (OVCAR-3 ovarian) of 1.4 µM and a TGI (OVCAR-3 ovarian) of 3.65 µM. The GI50 (SK-MEL-5 melanoma) was 1.22 µM and the TGI (SK-MEL-5 melanoma) was 2.49 µM.
Work on `CN(C)CCNC(=O)c1ccc2oc3cc4ccccc4c(=O)n3c2c1` yielded a GI50 (A549 NSCLC) of 26.2 µM, a TGI (A549 NSCLC) of 97 µM and a GI50 (DU-145 prostate) of 33.4 µM. For the same compound, the TGI (DU-145 prostate) was > 100 µM, the GI50 (EKVX NSCLC) was 27.5 µM and the TGI (EKVX NSCLC) was > 100 µM. The GI50 (HCT-15 colon) was 28.2 µM, the TGI (HCT-15 colon) was > 100 µM and the GI50 (IGROV1 ovarian) was 23.1 µM. For the same compound, the TGI (IGROV1 ovarian) was > 100 µM, the GI50 (KM12 colon) was 10.5 µM and the TGI (KM12 colon) was 77.8 µM. For the same compound, the GI50 (LOX IMVI melanoma) was 42.2 µM, the TGI (LOX IMVI melanoma) was > 100 µM and the GI50 (MDA-MB-231 breast) was 31.8 µM. The TGI (MDA-MB-231 breast) was > 100 µM, the GI50 (OVCAR-3 ovarian) was 15.4 µM and the TGI (OVCAR-3 ovarian) was 52.6 µM. It also gave a GI50 (SK-MEL-5 melanoma) of 22.6 µM and a TGI (SK-MEL-5 melanoma) of 43.6 µM.
With `Cc1ccccc1C(C(=O)NC1CCCCC1)N(C(=O)CNc1ccc(C#N)cc1)c1cccc(F)c1` (stereo not drawn) the GI50 (A549 NSCLC) was 44 µM, the TGI (A549 NSCLC) was > 100 µM and the GI50 (DU-145 prostate) was 64.4 µM. For the same compound, the TGI (DU-145 prostate) was > 100 µM, the GI50 (EKVX NSCLC) was 42.5 µM and the TGI (EKVX NSCLC) was > 100 µM. The GI50 (HCT-15 colon) was > 100 µM, the TGI (HCT-15 colon) was > 100 µM and the GI50 (IGROV1 ovarian) was 25 µM. The TGI (IGROV1 ovarian) was > 100 µM, the GI50 (KM12 colon) was > 100 µM and the TGI (KM12 colon) was > 100 µM. For the same compound, the GI50 (LOX IMVI melanoma) was 44.9 µM, the TGI (LOX IMVI melanoma) was > 100 µM and the GI50 (MDA-MB-231 breast) was 12.4 µM. For the same compound, the TGI (MDA-MB-231 breast) was 70.7 µM, the GI50 (OVCAR-3 ovarian) was > 63 µM and the TGI (OVCAR-3 ovarian) was > 100 µM. The GI50 (SK-MEL-5 melanoma) was > 71.2 µM and the TGI (SK-MEL-5 melanoma) was > 100 µM.
With `Oc1ccccc1/C=N\NC(=S)N/N=C/c1ccccc1O` the GI50 (A549 NSCLC) was 3.5 µM, the TGI (A549 NSCLC) was > 100 µM and the GI50 (DU-145 prostate) was 2.95 µM. The TGI (DU-145 prostate) was 61 µM, the GI50 (EKVX NSCLC) was 2.57 µM and the TGI (EKVX NSCLC) was 24.3 µM. For the same compound, the GI50 (HCT-15 colon) was 0.589 µM, the TGI (HCT-15 colon) was > 100 µM and the GI50 (IGROV1 ovarian) was 1.53 µM. The TGI (IGROV1 ovarian) was 16.2 µM, the GI50 (KM12 colon) was 3.11 µM and the TGI (KM12 colon) was 21.1 µM. The GI50 (LOX IMVI melanoma) was 1.4 µM, the TGI (LOX IMVI melanoma) was 27.7 µM and the GI50 (MDA-MB-231 breast) was 3.05 µM. The TGI (MDA-MB-231 breast) was > 100 µM, the GI50 (OVCAR-3 ovarian) was 0.451 µM and the TGI (OVCAR-3 ovarian) was 24.6 µM. For the same compound, the GI50 (SK-MEL-5 melanoma) was 1.69 µM and the TGI (SK-MEL-5 melanoma) was 8.53 µM.
